Patent US20260306640A1, “TECHNOLOGIES TARGETING CELL STATES” (Auron Therapeutics, Inc., priority 2023, published 2026)

What was measured:
Format in all cases: cell-based
[1] = molecular target: KAT2B (Homo sapiens, UniProt Q92831); assay: KAT2B degradation, Western Blot (Jess), NCI-H1048 cells; parameters: degrader, Western blot (Jess); conditions: NCI-H1048 cells, KAT2B, 24 h, Western Blot, vs DMSO; read-out: KAT2B NCI-H1048 DC50
In short: (§1)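 DC50 came from protein loss relative to DMSO, measured by Jess capillary immunoblot of RIPA lysates with chemiluminescence read-out. Before lysis, NCI-H1048 cells in 5% FBS HITES medium were exposed to compound for 24 h at 37° C.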

[2] = molecular target: T1, KAT2A (Homo sapiens, UniProt Q92830); assay: KAT2A degradation, Western Blot (Jess), NCI-H1048 cells; parameters: degrader, Western blot (Jess); conditions: NCI-H1048 cells, KAT2A, 24 h, Western Blot, vs DMSO; read-out: KAT2A NCI-H1048 DC50
T1 sequence (Q92830 whole entry): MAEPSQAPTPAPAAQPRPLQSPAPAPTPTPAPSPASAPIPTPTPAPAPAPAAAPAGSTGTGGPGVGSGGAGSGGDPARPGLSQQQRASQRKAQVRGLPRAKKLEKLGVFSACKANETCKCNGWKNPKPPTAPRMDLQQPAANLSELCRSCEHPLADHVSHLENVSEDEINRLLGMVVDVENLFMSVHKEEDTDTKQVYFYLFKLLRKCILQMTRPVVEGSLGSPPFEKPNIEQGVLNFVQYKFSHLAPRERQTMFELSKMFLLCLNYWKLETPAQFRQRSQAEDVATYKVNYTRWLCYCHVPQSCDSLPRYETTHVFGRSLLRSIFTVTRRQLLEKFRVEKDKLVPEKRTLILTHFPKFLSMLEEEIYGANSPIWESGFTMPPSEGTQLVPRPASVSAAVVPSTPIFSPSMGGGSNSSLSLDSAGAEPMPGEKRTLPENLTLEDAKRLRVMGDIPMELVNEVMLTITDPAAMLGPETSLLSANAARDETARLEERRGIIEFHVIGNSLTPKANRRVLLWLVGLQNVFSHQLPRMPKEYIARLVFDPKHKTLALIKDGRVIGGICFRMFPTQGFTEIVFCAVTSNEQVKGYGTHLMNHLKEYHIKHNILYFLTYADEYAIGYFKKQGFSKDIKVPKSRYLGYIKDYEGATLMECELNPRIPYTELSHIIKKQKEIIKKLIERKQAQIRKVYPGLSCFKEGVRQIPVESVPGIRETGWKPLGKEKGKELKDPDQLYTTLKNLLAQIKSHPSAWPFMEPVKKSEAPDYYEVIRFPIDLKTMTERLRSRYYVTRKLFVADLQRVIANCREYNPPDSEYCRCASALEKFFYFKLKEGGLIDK
In short: as §1

[3] = molecular target: T1, KAT2A; assay: KAT2A degradation, Western Blot (Jess), MOLM-13 cells; parameters: degrader, Western blot; conditions: MOLM-13 cells, KAT2A, 24 h, Western Blot, vs DMSO; read-out: KAT2A MOLM-13 DC50
In short: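 MOLM-13 cells in RPMI 1640/20% FBS were treated with compound for 24 h at 37 °C. RIPA lysates (4 μg) were run on a capillary Western (Jess) with anti-KAT2A antibody and chemiluminescent detection. DC50 comes from percent protein reduction versus DMSO control.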

Sequence of KAT2B (Q92831 whole entry): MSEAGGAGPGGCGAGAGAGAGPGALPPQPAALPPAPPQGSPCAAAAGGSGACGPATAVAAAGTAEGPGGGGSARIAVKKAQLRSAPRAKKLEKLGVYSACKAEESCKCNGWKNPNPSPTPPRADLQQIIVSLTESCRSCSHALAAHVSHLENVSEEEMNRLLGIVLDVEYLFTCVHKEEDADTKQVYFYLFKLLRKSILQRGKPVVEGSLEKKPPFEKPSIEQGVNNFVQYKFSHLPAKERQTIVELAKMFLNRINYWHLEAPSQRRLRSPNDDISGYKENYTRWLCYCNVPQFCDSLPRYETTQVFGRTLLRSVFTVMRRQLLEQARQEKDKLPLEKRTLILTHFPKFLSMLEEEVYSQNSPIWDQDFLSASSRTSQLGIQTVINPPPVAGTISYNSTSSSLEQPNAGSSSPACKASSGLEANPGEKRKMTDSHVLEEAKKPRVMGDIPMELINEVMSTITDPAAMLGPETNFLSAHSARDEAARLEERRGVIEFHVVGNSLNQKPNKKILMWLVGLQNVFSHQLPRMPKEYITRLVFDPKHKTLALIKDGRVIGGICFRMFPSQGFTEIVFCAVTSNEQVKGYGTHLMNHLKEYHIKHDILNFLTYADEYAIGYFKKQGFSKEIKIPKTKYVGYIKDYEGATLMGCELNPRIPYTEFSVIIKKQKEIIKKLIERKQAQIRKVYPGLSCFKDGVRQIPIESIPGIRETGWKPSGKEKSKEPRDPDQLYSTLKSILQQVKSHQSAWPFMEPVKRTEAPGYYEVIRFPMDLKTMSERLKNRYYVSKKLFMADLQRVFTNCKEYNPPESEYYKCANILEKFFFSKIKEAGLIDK

Compound	DC50 [1] [nM]	DC50 [2] [nM]	DC50 [3] [nM]
CN1C[C@H](Nc2cnn(C)c(=O)c2Cl)C[C@H](c2ccc(C(=O)N3CC4(CC(Oc5ccc(C6CCC(=O)NC6=O)c(F)c5)C4)C3)cc2)C1 (stereo partly shown) [Compound 2-44]	< 1	< 1	1 to 30
CN1C[C@H](Nc2cnn(C)c(=O)c2Br)C[C@H](c2ccc(CN3CC(Oc4cccc(C5CCC(=O)NC5=O)c4)C3)cc2)C1 (stereo partly shown) [Compound 184]	> 30	< 1	1 to 30
CN1C[C@H](Nc2cnn(C)c(=O)c2Br)C[C@H](c2ccc(CN3CCN(c4ccc(F)c(C5CCC(=O)NC5=O)c4)CC3)cc2)C1 (stereo partly shown) [Compound 152]	1 to 30	< 1	1 to 30
Cc1cc(OC2CCN(Cc3ccc([C@H]4C[C@@H](Nc5cnn(C)c(=O)c5Br)CN(C)C4)cc3)CC2)ccc1C1CCC(=O)NC1=O (stereo partly shown) [Compound 123]	> 30	< 1	< 1
Cc1c(N[C@@H]2C[C@H](c3ccc(C(=O)N4CCC5(CC4)CCN(c4ccc(C6CCC(=O)NC6=O)cc4)CC5)cc3)CN(C)C2)cnn(C)c1=O (stereo partly shown) [Compound 186]	< 1	< 1	< 1
CN1C[C@H](Nc2cnn(C)c(=O)c2Cl)C[C@H](c2ccc(CN3CCC4(CC3)CCN(c3ccc(C5CCC(=O)NC5=O)cc3)CC4)cc2)C1 (stereo partly shown) [Compound 155]	< 1	< 1	< 1
CN1C[C@H](Nc2cnn(C)c(=O)c2Cl)C[C@H](c2ccc(CN3CCC(Oc4ccc(C5CCC(=O)NC5=O)cc4)CC3)cc2)C1 (stereo partly shown) [Compound 168]	1 to 30	< 1	< 1
CN1C[C@H](Nc2cnn(C)c(=O)c2Cl)C[C@H](c2ccc(COc3ccc4c(c3)C(=O)N(C3CCC(=O)NC3=O)C4=O)cc2)C1 (stereo partly shown) [Compound 110]	1 to 30	1 to 30	1 to 30
Cc1c(N[C@@H]2C[C@H](c3ccc(CN4CCN(c5cccc(C6CCC(=O)NC6=O)c5)CC4)cc3)CN(C)C2)cnn(C)c1=O (stereo partly shown) [Compound 187]	1 to 30	< 1	< 1
Cc1c(N[C@@H]2C[C@H](c3ccc(CN4CCC(Oc5ccc(C6CCC(=O)NC6=O)cc5)CC4)cc3)CN(C)C2)cnn(C)c1=O (stereo partly shown) [Compound 188]	> 30	< 1	< 1
CN1C[C@H](Nc2cnn(C)c(=O)c2)C[C@H](c2ccc(CN3CCC(c4ccc5c(c4)CN(C4CCC(=O)NC4=O)C5=O)CC3)cc2)C1 (stereo partly shown) [Compound 85]	–	–	> 30
CN1C[C@H](Nc2cnn(C)c(=O)c2Cl)C[C@H](c2ccc(CN3CC(c4ccc5c(c4)CN(C4CCC(=O)NC4=O)C5=O)C3)cc2)C1 (stereo partly shown) [Compound 141]	–	–	< 1
CN1C[C@H](Nc2cnn(C)c(=O)c2Br)C[C@H](c2ccc(C(=O)NCCOCCn3cc(COCCOc4cccc5c4C(=O)N(C4CCC(=O)NC4=O)C5=O)nn3)cc2)C1 (stereo partly shown) [Compound 43]	–	–	> 30
Cc1ccc(N2CCN(Cc3ccc([C@H]4C[C@@H](Nc5cnn(C)c(=O)c5Br)CN(C)C4)cc3)CC2)cc1C1CCC(=O)NC1=O (stereo partly shown) [Compound 165]	–	–	< 1
CN1C[C@H](Nc2cnn(C)c(=O)c2Br)C[C@H](c2ccc(C(=O)NCCOCC(=O)Nc3ccc4c(c3)CN(C3CCC(=O)NC3=O)C4=O)cc2)C1 (stereo partly shown) [Compound 4]	–	–	> 30
CN1C[C@H](Nc2cnn(C)c(=O)c2Cl)C[C@H](c2ccc(CN3Cc4cc5c(cc4C3)C(=O)N(C3CCC(=O)NC3=O)C5=O)cc2)C1 (stereo partly shown) [Compound 164]	–	–	1 to 30
CN1C[C@H](Nc2cnn(C)c(=O)c2Br)C[C@H](c2ccc(C(=O)N3CCN(Cc4cccc5c4C(=O)N(C4CCC(=O)NC4=O)C5=O)CC3)cc2)C1 (stereo partly shown) [Compound 52]	–	–	< 1

More lines, now with the values ahead:

DC50 [1] [nM]	DC50 [2] [nM]	DC50 [3] [nM]	Compound
1 to 30	< 1	< 1	CN1C[C@H](Nc2cnn(C)c(=O)c2Cl)C[C@H](c2ccc(CN3CCN(c4cccc(C5CCC(=O)NC5=O)c4)CC3)cc2)C1 (stereo partly shown) [Compound 162]
1 to 30	< 1	< 1	CN1C[C@H](Nc2cnn(C)c(=O)c2Br)C[C@H](c2ccc(C(=O)N3CCC4(CC3)CN(c3ccc(C5CCC(=O)NC5=O)cc3)C4)cc2)C1 (stereo partly shown) [Compound 126]
< 1	< 1	< 1	CN1C[C@H](Nc2cnn(C)c(=O)c2Cl)C[C@H](c2ccc(CN3CCN(c4ccc5c(c4)CN(C4CCC(=O)NC4=O)C5=O)CC3)cc2)C1 (stereo partly shown) [Compound 72]
< 1	< 1	< 1	CN1C[C@H](Nc2cnn(C)c(=O)c2Br)C[C@H](c2ccc(CN3CCN(c4ccc5c(c4)C(=O)N(C4CCC(=O)NC4=O)C5=O)CC3)cc2)C1 (stereo partly shown) [Compound 28]
< 1	< 1	< 1	CN1C[C@H](Nc2cnn(C)c(=O)c2Br)C[C@H](c2ccc(CN3CCN(c4ccc5c(c4)CN(C4CCC(=O)NC4=O)C5=O)CC3)cc2)C1 (stereo partly shown) [Compound 67]
1 to 30	< 1	< 1	CN1C[C@H](Nc2cnn(C)c(=O)c2Br)C[C@H](c2ccc(C(=O)N3CCC(Oc4ccc(C5CCC(=O)NC5=O)cc4F)CC3)cc2)C1 (stereo partly shown) [Compound 124]
1 to 30	< 1	< 1	CN1C[C@H](Nc2cnn(C)c(=O)c2Cl)C[C@H](c2ccc(CN3CCN(c4ccc5c(c4)C(=O)N(C4CCC(=O)NC4=O)C5=O)CC3)cc2)C1 (stereo partly shown) [Compound 175]
> 30	< 1	< 1	Cc1cc(OC2CCN(C(=O)c3ccc([C@H]4C[C@@H](Nc5cnn(C)c(=O)c5Br)CN(C)C4)cc3)CC2)ccc1C1CCC(=O)NC1=O (stereo partly shown) [Compound 114]
–	–	1 to 30	CN1C[C@H](Nc2cnn(C)c(=O)c2Br)C[C@H](c2ccc(C(=O)N3CC4(CN(Cc5ccc6c(c5)C(=O)N(C5CCC(=O)NC5=O)C6=O)C4)C3)cc2)C1 (stereo partly shown) [Compound 60]
–	–	< 1	CN1C[C@H](Nc2ccn(C)c(=O)c2Br)C[C@H](c2ccc(CN3CCC(c4ccc5c(c4)CN(C4CCC(=O)NC4=O)C5=O)CC3)cc2)C1 (stereo partly shown) [Compound 68]
> 30	< 1	1 to 30	CN1C[C@H](Nc2cnn(C)c(=O)c2Br)C[C@H](c2ccc(C(=O)N3CCC(Oc4cccc(C5CCC(=O)NC5=O)c4)CC3)cc2)C1 (stereo partly shown) [Compound 120]
–	–	< 1	CN1C[C@H](Nc2cnn(C)c(=O)c2Br)C[C@H](c2ccc(CN3CCN(Cc4ccc5c(c4)CN(C4CCC(=O)NC4=O)C5=O)CC3)cc2)C1 (stereo partly shown) [Compound 74]
> 30	< 1	< 1	CN1C[C@H](Nc2cnn(C)c(=O)c2Br)C[C@H](c2ccc(CN3CCC(Oc4ccc(C5CCC(=O)NC5=O)cc4F)CC3)cc2)C1 (stereo partly shown) [Compound 125]
